Several values for one entry are separate records, joined by “and”; a condition that tells them apart may be missing. Equal values may be shown once. Toxic doses and inconclusive results are not listed. Cut-off read from the data, not from the text of the source: active = T/C of 150% or more; inactive = T/C below 125%.
Test system: L1210 leukemia ip in BDF1 mice, survival T/C
Assay: NCI In Vivo Anticancer Drug Screen. Data for tumor model L1210 Leukemia (intraperitoneal) in B6D2F1 (BDF1) mice
Conditions: endpoint: mean survival time, higher = longer survival
In short: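 Ratio derived from survival: compound-dosed mice over vehicle-dosed mice, all bearing a transplantable tumor.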

[1] = dose: 100.0 mg/kg/injection, schedule: Q01DX009 (ip), vehicle: Klucel (hydroxypropylcellulose) (HPC)
[2] = dose: 100.0 mg/kg/injection, schedule: Q04DX002 (ip), vehicle: Klucel (hydroxypropylcellulose) (HPC)
[3] = dose: 100.0 mg/kg/injection, schedule: Q04DX003 (ip), vehicle: Klucel (hydroxypropylcellulose) (HPC)
[4] = dose: 200.0 mg/kg/injection, schedule: Q01DX009 (ip), vehicle: Klucel (hydroxypropylcellulose) (HPC)
[5] = dose: 200.0 mg/kg/injection, schedule: Q04DX002 (ip), vehicle: Klucel (hydroxypropylcellulose) (HPC)
[6] = dose: 200.0 mg/kg/injection, schedule: Q04DX003 (ip), vehicle: Klucel (hydroxypropylcellulose) (HPC)
[7] = dose: 400.0 mg/kg/injection, schedule: Q01DX009 (ip), vehicle: Klucel (hydroxypropylcellulose) (HPC)
[8] = dose: 400.0 mg/kg/injection, schedule: Q04DX002 (ip), vehicle: Klucel (hydroxypropylcellulose) (HPC)
[9] = dose: 400.0 mg/kg/injection, schedule: Q04DX003 (ip), vehicle: Klucel (hydroxypropylcellulose) (HPC)
[10] = dose: 200.0 mg/kg/injection, schedule: Q01DX001 (ip), vehicle: saline
[11] = dose: 400.0 mg/kg/injection, schedule: Q01DX001 (ip), vehicle: saline
[12] = dose: 50.0 mg/kg/injection, schedule: Q01DX009 (ip), vehicle: saline with Tween-80
[13] = dose: 100.0 mg/kg/injection, schedule: Q01DX009 (ip), vehicle: saline with Tween-80
[14] = dose: 200.0 mg/kg/injection, schedule: Q01DX009 (ip), vehicle: saline with Tween-80
[15] = dose: 100.0 mg/kg/injection, schedule: Q04DX003 (ip), vehicle: saline
[16] = dose: 200.0 mg/kg/injection, schedule: Q04DX003 (ip), vehicle: saline
[17] = dose: 25.0 mg/kg/injection, schedule: Q01DX009 (ip), vehicle: Klucel (hydroxypropylcellulose) (HPC)
[18] = dose: 50.0 mg/kg/injection, schedule: Q01DX009 (ip), vehicle: Klucel (hydroxypropylcellulose) (HPC)

Measured: T/C

CSc1ccc(OC(=O)Nc2cccc(F)c2)cc1
inactive: dose: 100.0 mg/kg/injection, schedule: Q01DX001 (ip), vehicle: Klucel (hydroxypropylcellulose) (HPC) 88 % of control | [1] 105 % of control and 109 % of control | [2] 101 % of control and 91 % of control | [3] 104 % of control and 124 % of control | dose: 200.0 mg/kg/injection, schedule: Q01DX001 (ip), vehicle: Klucel (hydroxypropylcellulose) (HPC) 101 % of control | [4] 100 % of control and 101 % of control | [5] 94 % of control and 98 % of control | [6] 107 % of control and 120 % of control | dose: 400.0 mg/kg/injection, schedule: Q01DX001 (ip), vehicle: Klucel (hydroxypropylcellulose) (HPC) 104 % of control | [7] 109 % of control and 90 % of control | [8] 93 % of control and 94 % of control | [9] 104 % of control

Oc1cc2c(cc1O)CN1CCc3cc(O)c(O)cc3C1C2 (stereo not given)
inactive: dose: 75.0 mg/kg/injection, schedule: Q01DX001 (ip), vehicle: saline 103 % of control | dose: 150.0 mg/kg/injection, schedule: Q01DX001 (ip), vehicle: saline 105 % of control | dose: 300.0 mg/kg/injection, schedule: Q01DX001 (ip), vehicle: saline 93 % of control

CC/C(=C(\CC)c1ccc(OC)cc1)c1ccc(O)cc1
inactive: dose: 15.0 mg/kg/injection, schedule: Q01DX Z (sc), vehicle: steriod suspending solution 105 % of control | dose: 30.0 mg/kg/injection, schedule: Q01DX Z (sc), vehicle: steriod suspending solution 106 % of control | dose: 60.0 mg/kg/injection, schedule: Q01DX Z (sc), vehicle: steriod suspending solution 96 % of control and 103 % of control | dose: 90.0 mg/kg/injection, schedule: Q01DX Z (sc), vehicle: steriod suspending solution 103 % of control | dose: 135.0 mg/kg/injection, schedule: Q01DX Z (sc), vehicle: steriod suspending solution 102 % of control | [10] 96 % of control | dose: 200.0 mg/kg/injection, schedule: Q01DX Z (sc), vehicle: steriod suspending solution 100 % of control | dose: 250.0 mg/kg/injection, schedule: Q01DX015 (sc), vehicle: steriod suspending solution 97 % of control | [11] 104 % of control | dose: 500.0 mg/kg/injection, schedule: Q01DX015 (sc), vehicle: steriod suspending solution 93 % of control | dose: 750.0 mg/kg/injection, schedule: Q01DX015 (sc), vehicle: steriod suspending solution 95 % of control | dose: 800.0 mg/kg/injection, schedule: Q01DX001 (ip), vehicle: saline 98 % of control | dose: 1000.0 mg/kg/injection, schedule: Q01DX015 (sc), vehicle: steriod suspending solution 90 % of control

O=S(=O)(Cl)c1ccc2cc3ccccc3cc2c1
inactive: [12] 98 % of control | [13] 96 % of control | [14] 102 % of control

COc1ccc2nc3cc(Cl)ccc3c(NCCNCCNCCNc3c4ccc(Cl)cc4nc4ccc(OC)cc34)c2c1
inactive: dose: 6.25 mg/kg/injection, schedule: Q01DX009 (ip), vehicle: saline with Tween-80 100 % of control | dose: 12.5 mg/kg/injection, schedule: Q01DX009 (ip), vehicle: saline with Tween-80 91 % of control | dose: 25.0 mg/kg/injection, schedule: Q01DX009 (ip), vehicle: saline with Tween-80 101 % of control | [13] 107 % of control

Oc1ccc(C2=CSC3=NCCN23)cc1
inactive: dose: 5.0 mg/kg/injection, schedule: Q01DX001 (ip), vehicle: saline 94 % of control | dose: 10.0 mg/kg/injection, schedule: Q01DX001 (ip), vehicle: saline 93 % of control | dose: 20.0 mg/kg/injection, schedule: Q01DX001 (ip), vehicle: saline 93 % of control | dose: 40.0 mg/kg/injection, schedule: Q01DX001 (ip), vehicle: saline 96 % of control | dose: 80.0 mg/kg/injection, schedule: Q01DX001 (ip), vehicle: saline 104 % of control

CCOc1ccc(/C=N/NC(=O)c2ccccc2N)cc1OC
inactive: [2] 97 % of control | [5] 102 % of control | [8] 105 % of control

CC(C)(C)C1C(=O)N1C(C)(C)C (stereo not given)
inactive: [1] 103 % of control | [3] 101 % of control | [4] 101 % of control | [6] 97 % of control | [9] 97 % of control

O=[N+]([O-])c1ccc(-c2nn[nH]n2)cc1
inactive: dose: 100.0 mg/kg/injection, schedule: Q01DX001 (ip), vehicle: saline 92 % of control | [15] 103 % of control | [10] 103 % of control | [16] 93 % of control | dose: 264.0 mg/kg/injection, schedule: Q04DX003 (ip), vehicle: acetone 96 % of control | dose: 264.0 mg/kg/injection, schedule: Q04DX003 (ip), vehicle: saline with Tween-80 106 % of control | [11] 105 % of control | dose: 400.0 mg/kg/injection, schedule: Q04DX003 (ip), vehicle: acetone 102 % of control

FC1(F)SC2c3ccccc3CCC2C1(F)F (stereo not given)
inactive: [3] 96 % of control | [6] 95 % of control | [9] 102 % of control

CCOC(=O)c1cccs1
inactive: [1] 99 % of control | [3] 103 % of control | [4] 95 % of control | [6] 100 % of control | [7] 97 % of control | [9] 105 % of control

CNC(=S)N/N=C/c1ccccn1
inactive: dose: 25.0 mg/kg/injection, schedule: Q04DX003 (ip), vehicle: Klucel (hydroxypropylcellulose) (HPC) 112 % of control | dose: 50.0 mg/kg/injection, schedule: Q04DX003 (ip), vehicle: Klucel (hydroxypropylcellulose) (HPC) 97 % of control | [3] 93 % of control | [6] 101 % of control

CCOC(=O)Cc1cnc(SC)nc1Cl
inactive: [12] 98 % of control | [13] 91 % of control | dose: 100.0 mg/kg/injection, schedule: Q04DX003 (ip), vehicle: saline with Tween-80 92 % of control | [14] 88 % of control | dose: 200.0 mg/kg/injection, schedule: Q04DX003 (ip), vehicle: saline with Tween-80 92 % of control

O=C(Nc1ccc(CCO)cc1)Nc1cc([N+](=O)[O-])ccc1Cl
inactive: dose: 12.5 mg/kg/injection, schedule: Q01DX009 (ip), vehicle: Klucel (hydroxypropylcellulose) (HPC) 102 % of control | [17] 104 % of control | [18] 91 % of control

O=C(NNc1ccccc1)NNc1ccccc1 (tested in a mixture with another compound)
inactive: [12] 95 % of control | [13] 95 % of control | [14] 99 % of control

O=C1CN(C2OC(CO)C(O)C2O)C(=O)NC1=O (stereo not given)
inactive: dose: 132.0 mg/kg/injection, schedule: Q01DX Z (ip), vehicle: carboxymethylcellulose (CMC) 107 % of control | dose: 200.0 mg/kg/injection, schedule: Q01DX Z (ip), vehicle: carboxymethylcellulose (CMC) 110 % of control | dose: 299.0 mg/kg/injection, schedule: Q01DX Z (ip), vehicle: carboxymethylcellulose (CMC) 124 % of control | dose: 449.0 mg/kg/injection, schedule: Q01DX Z (ip), vehicle: carboxymethylcellulose (CMC) 107 % of control

Fc1nc(F)nc(F)n1
inactive: dose: 12.0 mg/kg/injection, schedule: Q01DX009 (ip), vehicle: Klucel (hydroxypropylcellulose) (HPC) 89 % of control | [17] 94 % of control | [18] 112 % of control | [15] 90 % of control | [16] 100 % of control | dose: 400.0 mg/kg/injection, schedule: Q04DX003 (ip), vehicle: saline 102 % of control
